Measured values published in ChEMBL document CHEMBL1201862, “PubChem BioAssay data set” (2004).
Activity calls are given as the source filed them.

Tests used:
[1] = molecular target: Delta-type opioid receptor (Homo sapiens, UniProt P41143); assay: Counterscreen for agonists of heterodimerization of the mu 1 (OPRM1) and delta 1 (OPRD1) opioid receptors: Luminescence-based cell-based high throughput dose response assay to identify agonists of OPRD1 homodimerization. [Related pubchem assays (depositor defined):AID504326, AID504355, AID504692, AID504904, AID504905]; format: functional
Sequence of Delta-type opioid receptor (P41143 whole entry): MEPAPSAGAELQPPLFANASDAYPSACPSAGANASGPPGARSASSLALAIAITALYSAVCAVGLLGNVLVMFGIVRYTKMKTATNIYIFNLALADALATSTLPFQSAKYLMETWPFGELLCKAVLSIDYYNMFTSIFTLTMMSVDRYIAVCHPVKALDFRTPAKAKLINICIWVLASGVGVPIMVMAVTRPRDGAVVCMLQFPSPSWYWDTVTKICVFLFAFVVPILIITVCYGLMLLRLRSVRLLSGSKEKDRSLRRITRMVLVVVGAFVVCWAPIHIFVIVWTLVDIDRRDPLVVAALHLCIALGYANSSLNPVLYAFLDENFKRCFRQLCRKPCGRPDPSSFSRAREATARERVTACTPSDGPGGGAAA

[2] = NIH3T3 cell viability loss – ATP luminescence, mouse fibroblasts, counter-screen, dose response (AID 2010); format: functional, cell-based;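 note: cells exposed to compound for about 90 hours before reading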
[3] = molecular target: T1, Sentrin-specific protease 8 (Homo sapiens, UniProt Q96LD8); format: functional;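 note: luminescence read-out of SENP8 inhibition, dose-response confirmation following an ultra-high-throughput screen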
T1 sequence (Q96LD8 whole entry): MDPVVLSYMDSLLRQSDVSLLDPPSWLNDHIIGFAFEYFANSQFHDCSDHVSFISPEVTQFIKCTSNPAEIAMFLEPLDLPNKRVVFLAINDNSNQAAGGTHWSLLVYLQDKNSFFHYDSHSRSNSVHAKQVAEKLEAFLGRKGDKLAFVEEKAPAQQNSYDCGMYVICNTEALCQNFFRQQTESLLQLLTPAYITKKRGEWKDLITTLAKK

[4] = molecular target: Dual specificity protein phosphatase 6 (Rattus norvegicus, UniProt Q64346); assay: inhibition of rat DUSP6 enzyme activity – biochemical, in vitro, primary screen (AID 425)
Sequence of Dual specificity protein phosphatase 6 (Q64346 whole entry): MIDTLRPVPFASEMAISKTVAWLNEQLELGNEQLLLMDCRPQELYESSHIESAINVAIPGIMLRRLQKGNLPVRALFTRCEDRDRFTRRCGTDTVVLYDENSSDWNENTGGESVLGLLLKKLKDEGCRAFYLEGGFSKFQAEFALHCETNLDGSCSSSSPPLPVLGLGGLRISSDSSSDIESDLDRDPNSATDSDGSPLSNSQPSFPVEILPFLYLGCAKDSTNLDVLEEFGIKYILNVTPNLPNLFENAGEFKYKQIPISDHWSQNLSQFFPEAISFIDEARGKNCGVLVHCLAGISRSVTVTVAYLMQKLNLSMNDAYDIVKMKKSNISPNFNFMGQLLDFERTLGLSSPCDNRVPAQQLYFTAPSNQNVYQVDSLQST

[5] = molecular target: T2, Bcl-2-related protein A1 (Mus musculus, UniProt Q07440); assay: small-molecule antagonists of Bfl-1/BH3 interaction – biochemical, TR-FRET, mouse Bfl-1, confirmation (AID 621);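 note: TR-FRET binding of GST-Bfl-1 to FITC-labelled Bid peptide via terbium antibody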
T2 sequence (Q07440 whole entry): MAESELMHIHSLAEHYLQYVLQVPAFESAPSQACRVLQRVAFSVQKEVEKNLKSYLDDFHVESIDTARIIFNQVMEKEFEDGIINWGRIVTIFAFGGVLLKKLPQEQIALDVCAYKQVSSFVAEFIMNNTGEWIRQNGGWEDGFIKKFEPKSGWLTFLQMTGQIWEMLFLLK

[6] = molecular target: Mothers against decapentaplegic homolog 3 (Homo sapiens, UniProt P84022); assay: inhibitors of SMAD-driven TGF-beta signaling – dose response (AID 715); format: functional
Sequence of Mothers against decapentaplegic homolog 3 (P84022 whole entry): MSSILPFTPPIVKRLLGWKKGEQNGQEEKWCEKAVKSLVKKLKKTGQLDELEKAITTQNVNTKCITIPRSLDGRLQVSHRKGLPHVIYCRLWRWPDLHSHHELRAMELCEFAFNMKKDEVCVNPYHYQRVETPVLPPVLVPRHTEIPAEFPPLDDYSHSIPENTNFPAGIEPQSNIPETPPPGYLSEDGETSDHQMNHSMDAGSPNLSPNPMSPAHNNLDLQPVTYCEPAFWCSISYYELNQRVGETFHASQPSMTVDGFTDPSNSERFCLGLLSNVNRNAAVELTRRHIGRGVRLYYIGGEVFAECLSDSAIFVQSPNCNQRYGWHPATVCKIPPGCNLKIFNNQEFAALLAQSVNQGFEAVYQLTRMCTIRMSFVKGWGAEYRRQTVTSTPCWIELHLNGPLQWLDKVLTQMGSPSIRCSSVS

[7] = molecular target: Beta-lactamase (Pseudomonas aeruginosa, UniProt Q79MP6);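 note: biochemical dose-response test of metallo-beta-lactamase enzyme inhibition, read out by epi-absorbance; purified recombinant IMP-1 metallo-beta-lactamase with nitrocefin as substrate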
Sequence of Beta-lactamase (Q79MP6 whole entry): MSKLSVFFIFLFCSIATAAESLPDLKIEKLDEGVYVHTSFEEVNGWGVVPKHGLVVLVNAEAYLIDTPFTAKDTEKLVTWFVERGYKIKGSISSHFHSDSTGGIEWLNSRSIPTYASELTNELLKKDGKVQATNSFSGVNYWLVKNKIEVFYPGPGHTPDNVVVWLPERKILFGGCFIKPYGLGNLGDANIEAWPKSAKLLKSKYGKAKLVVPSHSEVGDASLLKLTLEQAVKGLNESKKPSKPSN

[8] = tested on: HEK293; assay: membrane integrity loss in HEK cells – cell-based, fluorescence, cytotoxicity control for IDE activator project, dose response (AID 588440); format: functional; settings: Homo sapiens;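 note: cytotoxicity by LDH release measuring loss of membrane integrity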
[9] = molecular target: Nonstructural protein 1 (Influenza A virus, UniProt Q194T2); format: functional, Influenza A virus (A/California/07/2009(H1N1))
Sequence of Nonstructural protein 1 (Q194T2 whole entry): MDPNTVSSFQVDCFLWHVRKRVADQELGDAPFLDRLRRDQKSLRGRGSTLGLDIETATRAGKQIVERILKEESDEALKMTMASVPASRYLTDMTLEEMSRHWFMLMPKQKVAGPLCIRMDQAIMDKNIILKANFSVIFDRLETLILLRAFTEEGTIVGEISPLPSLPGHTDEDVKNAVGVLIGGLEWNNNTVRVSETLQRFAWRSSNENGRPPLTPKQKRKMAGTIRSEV

[10] = molecular target: Ras and Rab interactor 1/Tyrosine-protein kinase ABL1 (Homo sapiens, UniProt P00519+Q13671); format: functional;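 note: biochemical TR-FRET dose-response test measuring inhibition of binding between Rin1 and Abl proteins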
Sequence of Ras and Rab interactor 1/Tyrosine-protein kinase ABL1 (P00519 whole entry): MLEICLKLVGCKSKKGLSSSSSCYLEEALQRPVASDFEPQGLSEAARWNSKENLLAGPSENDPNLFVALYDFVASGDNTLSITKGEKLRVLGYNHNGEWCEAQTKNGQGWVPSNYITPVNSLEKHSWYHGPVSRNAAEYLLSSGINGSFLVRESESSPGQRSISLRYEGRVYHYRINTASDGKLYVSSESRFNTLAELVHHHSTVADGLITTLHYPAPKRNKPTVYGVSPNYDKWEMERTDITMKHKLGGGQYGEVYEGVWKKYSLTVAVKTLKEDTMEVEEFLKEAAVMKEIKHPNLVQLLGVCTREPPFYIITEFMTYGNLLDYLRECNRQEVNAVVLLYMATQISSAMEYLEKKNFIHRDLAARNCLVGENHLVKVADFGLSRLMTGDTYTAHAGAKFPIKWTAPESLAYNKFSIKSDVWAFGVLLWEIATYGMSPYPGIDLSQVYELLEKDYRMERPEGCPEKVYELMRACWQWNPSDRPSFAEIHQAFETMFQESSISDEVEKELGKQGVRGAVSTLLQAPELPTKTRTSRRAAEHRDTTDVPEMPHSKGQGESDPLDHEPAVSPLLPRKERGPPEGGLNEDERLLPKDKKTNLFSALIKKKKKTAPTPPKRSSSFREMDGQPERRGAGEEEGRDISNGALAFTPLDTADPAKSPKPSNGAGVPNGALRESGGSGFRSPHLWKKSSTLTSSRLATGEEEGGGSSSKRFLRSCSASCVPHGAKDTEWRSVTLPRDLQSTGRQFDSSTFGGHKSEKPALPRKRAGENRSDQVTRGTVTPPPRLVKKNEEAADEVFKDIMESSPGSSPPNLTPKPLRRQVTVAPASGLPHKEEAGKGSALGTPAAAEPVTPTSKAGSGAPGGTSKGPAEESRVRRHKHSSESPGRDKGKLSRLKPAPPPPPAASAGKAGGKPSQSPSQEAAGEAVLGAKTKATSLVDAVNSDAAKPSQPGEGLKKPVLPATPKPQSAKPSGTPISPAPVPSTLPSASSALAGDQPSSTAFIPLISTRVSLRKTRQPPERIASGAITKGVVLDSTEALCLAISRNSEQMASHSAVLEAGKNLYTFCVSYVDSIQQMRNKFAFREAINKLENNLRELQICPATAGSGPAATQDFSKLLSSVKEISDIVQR
Sequence of Ras and Rab interactor 1/Tyrosine-protein kinase ABL1 (Q13671 whole entry): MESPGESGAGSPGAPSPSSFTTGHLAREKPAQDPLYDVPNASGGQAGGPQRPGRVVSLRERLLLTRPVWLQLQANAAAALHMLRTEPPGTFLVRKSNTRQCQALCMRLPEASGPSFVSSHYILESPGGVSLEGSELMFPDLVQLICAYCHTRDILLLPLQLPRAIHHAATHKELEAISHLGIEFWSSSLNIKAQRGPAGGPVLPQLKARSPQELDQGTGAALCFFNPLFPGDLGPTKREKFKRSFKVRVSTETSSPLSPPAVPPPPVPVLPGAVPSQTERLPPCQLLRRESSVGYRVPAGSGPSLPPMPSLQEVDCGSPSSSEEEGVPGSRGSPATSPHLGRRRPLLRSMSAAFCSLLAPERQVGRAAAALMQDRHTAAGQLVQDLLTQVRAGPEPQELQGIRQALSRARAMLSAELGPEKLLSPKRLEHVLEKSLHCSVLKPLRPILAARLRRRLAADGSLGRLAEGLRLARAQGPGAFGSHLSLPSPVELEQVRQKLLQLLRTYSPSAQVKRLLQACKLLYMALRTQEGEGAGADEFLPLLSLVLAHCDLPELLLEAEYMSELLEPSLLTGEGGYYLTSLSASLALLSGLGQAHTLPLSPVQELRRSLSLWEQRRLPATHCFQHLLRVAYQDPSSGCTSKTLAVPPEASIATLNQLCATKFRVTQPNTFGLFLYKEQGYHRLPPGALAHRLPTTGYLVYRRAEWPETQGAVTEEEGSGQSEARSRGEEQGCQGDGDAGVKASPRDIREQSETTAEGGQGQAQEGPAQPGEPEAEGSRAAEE

[11] = molecular target: Voltage-gated N-type calcium channel alpha-1B subunit/Amyloid beta A4 precursor protein-binding family A member 1 (Homo sapiens, UniProt Q00975+Q02410); format: protein assay

With `CCCCCCCCCCOC(=O)C[n+]1c(COc2ccccc2C)n(C)c2ccccc21` the EC50 [1] was > 92.5 µM (inactive) and the EC50 [2] was > 60 µM (not active).
For `Oc1nc(Nc2ccccc2)cc2ccccc12`, the IC50 [3] was 0.899 µM (active), the IC50 [4] was > 100 µM (not active) and the IC50 [5] was > 100 µM (not active). For the same compound, the IC50 [6] was 19.6 µM (active).
In the case of `COc1cc(OC)c(-c2c3cc(O)c(=O)cc-3oc3cc(O)c(O)cc23)cc1OC`, the IC50 [7] is reported as 5.62 µM (active), the IC50 [8] is reported as > 89.2 µM (inactive) and the IC50 [9] is reported as 41.7 µM (active). The IC50 [10] was 0.724 µM (active) and the IC50 [11] was 12.5 µM (active).
